Experimental data reported in patent publication US20200345725A1, “Methods and Compositions for Treating Cancer” (Omeros Corporation, priority 2019, published 2020).
Several values for one entry are separate records, joined by “and”; a condition that tells them apart may be missing. Equal entries are not always repeated. Marks after values point to notes of the source that are not given here.

Assays:
Assay type in all cases: cell-based
GPR174 [1] = target: T1, GPR174 (Homo sapiens, UniProt Q9BXC1); test: CRE-Luc reporter Gs signaling assay with GPR174; set-up: host or cells: HEK293 or CHO cell lines (ATCC); settings: for Fold decrease in Gs signaling activity / EC50 / Human GPR174 CRE Activity: nature of the compound (IA, antagonist, NM): pCRE-Luc reporter; for EC50: multiple values = separate experiments; for Gs pathway in the presence of GPR174 (CRE-Luc reporter): increasing concentrations of compound
Target sequence in this assay (Q9BXC1 whole entry): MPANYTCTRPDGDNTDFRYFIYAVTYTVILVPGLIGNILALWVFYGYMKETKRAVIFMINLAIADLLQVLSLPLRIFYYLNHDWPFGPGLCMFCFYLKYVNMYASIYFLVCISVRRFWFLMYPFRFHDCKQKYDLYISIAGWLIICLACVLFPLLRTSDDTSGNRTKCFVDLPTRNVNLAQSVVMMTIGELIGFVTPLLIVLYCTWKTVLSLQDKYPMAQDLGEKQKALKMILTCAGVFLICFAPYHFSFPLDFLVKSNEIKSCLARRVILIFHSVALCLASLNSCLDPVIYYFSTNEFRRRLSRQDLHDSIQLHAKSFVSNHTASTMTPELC

GPR174 [2] = target: T1, GPR174; test: Cellular redistribution assay (CRA) for GPR174; settings: multiple values = separate experiments
Excerpt: One method for identifying compounds capable of modulating a receptor is using a cellular redistribution assay (“CRA”). Exemplary CRA methods are found in U.S. Pat. No. 7,309,576 issued to O'Dowd et al. and in O'Dowd et al., J. Biomol. Screen. 12:175-85,2007. […] Incorporation of the NLS alters the cellular localization of the GPCR, such that the majority of the NLS-modified receptor is present in the cell interior. An NLS-modified GPCR, when interacting with a functionally active compound, is mostly localized on the cell surface. Thus, it becomes possible to identify receptor modulators without knowledge of the endogenous ligand or a surrogate ligand.
The inventors have identified a number of compounds that inhibit GPR174 using a CRA assay similar to that described in U.S. Pat. No. 7,309,576 and in O'Dowd et al., J. Biomol. Screen. 12:175-85, 2007. These compounds are described in detail below.
The inventors used a CRA similar to that described in U.S. Pat. No. 7,309,576 and O'Dowd et al., J. Biomol. Screen. 12:175-85, 2007 to identify compounds that are capable of interacting with GPR174 using a library of approximately 370,000 chemical entities. Briefly described, the CRA assay described in U.S. Pat. No. 7,309,576 involves artificially inserting a NLS into the dopamine D1 receptor (DRD1), which allows the receptor to traffic from the cell membrane to the cell interior, and that the binding of antagonists to the receptor retained the receptor at the cell surface, while removal of the ligand allowed the receptor to continue to internalize from the cell surface. Both antagonists and agonists that selectively bound the receptor retained the receptor on the plasma membrane. GPR174 constructs were generated for use in a CRA-based compound screening assay. From this screen, the inventors initially identified compounds of formula I-VI, as described herein and included in Table 1.
Target sequence in this assay (Q9BXC1 1-292 limits assumed): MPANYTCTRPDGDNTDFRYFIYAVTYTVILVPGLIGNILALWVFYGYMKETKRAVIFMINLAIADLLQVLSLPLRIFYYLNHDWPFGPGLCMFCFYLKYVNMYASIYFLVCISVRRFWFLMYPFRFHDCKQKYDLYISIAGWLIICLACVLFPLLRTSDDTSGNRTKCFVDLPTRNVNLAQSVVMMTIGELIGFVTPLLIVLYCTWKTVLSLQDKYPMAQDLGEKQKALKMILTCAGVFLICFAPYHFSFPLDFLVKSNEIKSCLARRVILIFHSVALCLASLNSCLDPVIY

ADBR2 = target: T2, ADBR2 (Homo sapiens, UniProt P07550); test: CRE-Luc reporter assay with control receptor ADBR2
T2 construct: host or cells: HEK293 or CHO cell lines (ATCC)
Experimental: The DNA/lipofectamine 2000 mix (3000 μL) was incubated at room temperature for 30 minutes and then added into a 10 cm culture dish (Corning, NY) containing 70-90% confluent cultured cells, (HEK293 or CHO cell lines (ATCC, VA)), in 15 mL of media. […] The cells were further incubated at 37° C. for various times. The media were removed and the cells lysed.
Compounds were tested in the reporter system with increasing concentrations of GPR174-interacting compounds.
The DNA/lipofectamine 2000 mix (3000 μL) was incubated at room temperature for 30 minutes and then added into a 10 cm culture dish (Corning, NY) containing 70-90% confluent cultured cells, typically HEK293 or CHO cell lines (ATCC, VA), in 15 mL of media. […] Media (26 mL) were added to the detached cells and 120 μL of transfected cells were transferred to each well on a 96-well plate. Increasing concentration of each compound in DMSO (1.2 μl) was added to the cells after plating into the 96-well plate. The cells were further incubated at 37° C. for various times. The media were removed, and the cells lysed.
ADBR2 is a GPCR, like GPR174, that activates the Gs signaling pathway.

human PBMCs = test: Th1 cytokines in supernatants of stimulated human PBMC, GPR174 inhibitor with adenosine pathway inhibitors (Examples 15, 18-22); settings: donor 7
Experimental: Human PBMCs, obtained from a human volunteer donor, were dispensed at density of 1×10^6 cells/well in a 96-well flat-bottom plate and were stimulated in triplicate with 1 μg/mL anti-CD3 antibody (UCHT1) and 0.1 μg/mL anti-CD28 antibody (CD28.2) in the presence of:
Supernatants from these cells were collected at 24 hours post-stimulation and the levels of IFN-γ were determined by ELISA assay. Statistical analysis was carried out using one-way ANOVA with Tukey's post-hoc multiple comparison's correction.
Human PBMCs, obtained from a human volunteer donor (donor 1), were dispensed in X-vivo15 media (Lonza) supplemented with Glutamax, penicillin and streptomycin, at density of 1×10^6 cells/well in a 96-well flat-bottom plate and were stimulated with 1 μg/mL anti-CD3 antibody (UCHT1) and 0.1 μg/mL anti-CD28 antibody (CD28.2) in the presence of:
Supernatants from these cells were collected at 24 hours post-stimulation and the levels of IFN-γ, IL-2 and TNF were determined by ELISA assays.
Human PBMCs, obtained from two individual human volunteer donors (donor 2 and donor 3), were dispensed at density of 1×10^6 cells/well in a 96-well flat-bottom plate and were stimulated with 1 μg/mL anti-CD3 antibody (UCHT1) and 0.1 μg/mL anti-CD28 antibody (CD28.2) in the presence of:
Human PBMCs, obtained from twelve individual human volunteer donors were dispensed at density of 1×10^6 cells/well in a 96-well flat-bottom plate and were stimulated in triplicate with 1 μg/mL anti-CD3 antibody (UCHT1) and 0.1 μg/mL anti-CD28 antibody (CD28.2) in the presence of:
A total of 44 experiments using PBMC from 12 healthy donors were tested (9 donors for GM-CSF), with each donor tested in 1 to 8 separate experiments, depending on the donor (1 to 4 experiments each for GM-CSF). […] Cytokines were detected in supernatants with the Legendplex (Biolegend) or the MSB (MesoScale) platforms. […] One-way ANOVA with Tukey's post-hoc multiple comparisons correction was performed to identify significant differences (FC, mean fold change; ****, p<0.0001, ***, p<0.001; **, p<0.01; *, p<0.05, ns, not significant).
Human PBMC (1×10^6 cells/well in a 96-well flat-bottom plate) obtained from donor 3 and donor 6 were stimulated with 1 μg/mL anti-CD3 antibody (UCHT1) and 0.1 μg/mL anti-CD28 antibody (CD28.2) in the presence of:
Supernatants from these cells were collected at 24 hours post-stimulation and the levels of IFN-γ, IL-2, and TNF were determined with the MSD platform (MesoScale Discovery).
Human PBMC (1×10^6 cells/well in a 96-well flat-bottom plate) obtained from donor 7 were stimulated with 1 μg/mL […] (UCHT1) and 0.1 μg/mL anti-CD28 antibody (CD28.2) in the presence of:
Supernatants from these cells were collected at 24 hours post-stimulation and the levels of IFN-γ, IL-2, TNF and GM-CSF were determined with the MSD platform (MesoScale Discovery).
Supernatants from these cells were collected at 24 hours post-stimulation and the levels of IFN-γ, IL-2 and TNF were determined with the MSD platform (MesoScale Discovery).

[3] = high and low concentrations, ZM 0.1 μM
[4] = no ZM, 0.3 μM (compound 20: 3 μM)
[5] = no ZM, 1 μM (compound 20: 10 μM)
[6] = with ZM-241385 0.1 μM, 0.3 μM (compound 20: 3 μM)
[7] = with ZM-241385 0.1 μM, 1 μM (compound 20: 10 μM), label ZM = ZM alone

T2 sequence (P07550 whole entry): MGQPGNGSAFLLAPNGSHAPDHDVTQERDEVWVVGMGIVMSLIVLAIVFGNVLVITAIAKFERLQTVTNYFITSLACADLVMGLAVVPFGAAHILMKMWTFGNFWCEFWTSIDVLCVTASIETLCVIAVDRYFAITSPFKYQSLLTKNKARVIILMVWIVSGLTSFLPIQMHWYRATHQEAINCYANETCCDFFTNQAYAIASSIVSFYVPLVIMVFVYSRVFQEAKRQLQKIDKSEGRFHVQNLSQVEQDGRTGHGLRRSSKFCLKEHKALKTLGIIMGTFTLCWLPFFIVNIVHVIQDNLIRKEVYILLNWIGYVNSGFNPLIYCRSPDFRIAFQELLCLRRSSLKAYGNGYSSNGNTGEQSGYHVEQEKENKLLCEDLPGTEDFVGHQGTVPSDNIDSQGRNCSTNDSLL

| Fold decrease in Gs signaling activity (GPR174 [1]) [fold] | EC50 (GPR174 [1]) | EC50 (GPR174 [2]) [nM] | Gs pathway in the presence of GPR174 (CRE-Luc reporter) (GPR174 [1]) | Gs pathway in the presence of ADBR2 (CRE-Luc reporter) (ADBR2) | SMILES | also measured |
| --- | --- | --- | --- | --- | --- | --- |
| – | – | – | did not modulate | did not modulate | Cc1ccc(-c2nnc(Nc3ccccc3)c3ccccc23)cc1S(N)(=O)=O [compound 19] | Human GPR174 CRE Activity: nature of the compound (IA, antagonist, NM) (GPR174 [1]): Antagonist or allosteric modulator |
| – | – | – | did not modulate | did not modulate | Cc1cc(Cc2ccc(NC(=O)c3cccs3)c(C)c2)ccc1NC(=O)c1cccs1 [compound 21] | Human GPR174 CRE Activity: nature of the compound (IA, antagonist, NM) (GPR174 [1]): GPR174 antagonist or allosteric modulator |
| 10.2 | 1000 nM and 1500 nM | – | inhibited | did not inhibit | COc1ccc(C2C3=C(CCCC3=O)NC3=C2C(=O)c2ccccc23)cc1 (stereo not shown) [compound 22] | – |

Further lines, the compound ahead of its results:

| SMILES | Fold decrease in Gs signaling activity (GPR174 [1]) [fold] | EC50 (GPR174 [1]) | EC50 (GPR174 [2]) [nM] | Gs pathway in the presence of GPR174 (CRE-Luc reporter) (GPR174 [1]) | Gs pathway in the presence of ADBR2 (CRE-Luc reporter) (ADBR2) | also measured |
| --- | --- | --- | --- | --- | --- | --- |
| CCCC(=O)N1CCN(c2cc(N3CCCCC3)c(F)cc2[N+](=O)[O-])CC1 [compound 5] | 2.4 | 900 nM | > 1200 | – | – | – |
| CCOC(=O)N1CCN(c2cc(N3CCCCC3)c(F)cc2[N+](=O)[O-])CC1 [compound 7] | 2.4 | 300 nM and 500 nM | > 700 | inhibited | did not inhibit | – |
| CCC(=O)N1CCN(c2cc(N3CCCCC3)c(F)cc2[N+](=O)[O-])CC1 [compound 9] | 2.1 | 700 nM and 500 nM | > 2000 | – | – | – |
| O=[N+]([O-])c1cc(F)c(N2CCCCC2)cc1N1CCN(S(=O)(=O)c2ccccc2)CC1 [compound 11] | 3.1 | 500 nM and 1300 nM and 600 nM | > 1100 | inhibited | did not inhibit | synergy with ZM on GM-CSF (greater than the sum of the increases with each inhibitor alone) (human PBMCs; [3]): synergized with ZM; synergy with ZM on IFN-γ (greater than the sum of the increases with each inhibitor alone) (human PBMCs; [3]): synergized with ZM; synergy with ZM on IL-2 (greater than the sum of the increases with each inhibitor alone) (human PBMCs; [3]): synergized with ZM; synergy with ZM on TNF (greater than the sum of the increases with each inhibitor alone) (human PBMCs; [3]): synergized with ZM; GM-CSF, ratio relative to vehicle control (human PBMCs; [4]): 2.9*; IFN-γ, ratio relative to vehicle control (human PBMCs; [4]): 1.9*; IL-2, ratio relative to vehicle control (human PBMCs; [4]): 1.4*; TNF, ratio relative to vehicle control (human PBMCs; [4]): 1.7*; GM-CSF, ratio relative to vehicle control (human PBMCs; [5]): 2.4*; IFN-γ, ratio relative to vehicle control (human PBMCs; [5]): 1.8*; IL-2, ratio relative to vehicle control (human PBMCs; [5]): 1.3; TNF, ratio relative to vehicle control (human PBMCs; [5]): 1.7*; GM-CSF, ratio relative to vehicle control (human PBMCs; [6]): 4.4*; IFN-γ, ratio relative to vehicle control (human PBMCs; [6]): 2.9*; IL-2, ratio relative to vehicle control (human PBMCs; [6]): 1.8*; TNF, ratio relative to vehicle control (human PBMCs; [6]): 2.6*; GM-CSF, ratio relative to vehicle control (human PBMCs; [7]): 4.9*; IFN-γ, ratio relative to vehicle control (human PBMCs; [7]): 3.4*; IL-2, ratio relative to vehicle control (human PBMCs; [7]): 1.9*; TNF, ratio relative to vehicle control (human PBMCs; [7]): 3.0* |
| CC(=O)N1CCN(c2cc(N3CCC(C)CC3)c(F)cc2[N+](=O)[O-])CC1 [compound 13] | 2.2 | 800 nM and 1200 nM | > 2000 | – | – | – |
